Results from patent US12275731B2, “Azaindole inhibitors of wild-type and mutant forms of LRRK2” (DANA-FARBER CANCER INSTITUTE, INC., priority 2018, dated 2025).

Key:
Assay in all cases: KinomeScan profiling
Format in all cases: binding
[1] = biological target: PKN1 (Homo sapiens, UniProt Q16512); settings: PKN1, 1 μM; read-out: % control
How it was run: (§1)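 Selectivity was assessed by binding competition at 1 μM against 468 kinases. Values below 35% of control define an interaction.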

[2] = biological target: T1, STK39 (Homo sapiens, UniProt Q9UEW8); settings: STK39, 1 μM; read-out: % control
T1 construct: purchased KinomeScan® (panel service)
How it was run: as §1

[3] = biological target: CSNK1A1 (Homo sapiens, UniProt P48729); settings: CSNK1A1, 1 μM; read-out: % control
Chain of CSNK1A1 (P48729 whole entry): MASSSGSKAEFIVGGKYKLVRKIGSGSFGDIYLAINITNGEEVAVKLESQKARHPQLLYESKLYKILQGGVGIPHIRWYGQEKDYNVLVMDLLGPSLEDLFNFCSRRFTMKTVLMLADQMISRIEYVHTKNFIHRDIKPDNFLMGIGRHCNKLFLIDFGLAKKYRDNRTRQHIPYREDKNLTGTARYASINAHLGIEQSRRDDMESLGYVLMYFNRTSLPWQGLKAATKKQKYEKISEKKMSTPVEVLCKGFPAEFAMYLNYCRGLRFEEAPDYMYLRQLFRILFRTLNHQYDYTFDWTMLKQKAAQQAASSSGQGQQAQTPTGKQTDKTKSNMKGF
How it was run: as §1

[4] = biological target: T2, JNK2 (Homo sapiens, UniProt P45984); settings: JNK2, 1 μM; read-out: % control
T2 construct: purchased KinomeScan®
How it was run: as §1

[5] = biological target: BUB1 (Homo sapiens, UniProt O43683); settings: BUB1, 1 μM; read-out: % control
Chain of BUB1 (O43683 whole entry): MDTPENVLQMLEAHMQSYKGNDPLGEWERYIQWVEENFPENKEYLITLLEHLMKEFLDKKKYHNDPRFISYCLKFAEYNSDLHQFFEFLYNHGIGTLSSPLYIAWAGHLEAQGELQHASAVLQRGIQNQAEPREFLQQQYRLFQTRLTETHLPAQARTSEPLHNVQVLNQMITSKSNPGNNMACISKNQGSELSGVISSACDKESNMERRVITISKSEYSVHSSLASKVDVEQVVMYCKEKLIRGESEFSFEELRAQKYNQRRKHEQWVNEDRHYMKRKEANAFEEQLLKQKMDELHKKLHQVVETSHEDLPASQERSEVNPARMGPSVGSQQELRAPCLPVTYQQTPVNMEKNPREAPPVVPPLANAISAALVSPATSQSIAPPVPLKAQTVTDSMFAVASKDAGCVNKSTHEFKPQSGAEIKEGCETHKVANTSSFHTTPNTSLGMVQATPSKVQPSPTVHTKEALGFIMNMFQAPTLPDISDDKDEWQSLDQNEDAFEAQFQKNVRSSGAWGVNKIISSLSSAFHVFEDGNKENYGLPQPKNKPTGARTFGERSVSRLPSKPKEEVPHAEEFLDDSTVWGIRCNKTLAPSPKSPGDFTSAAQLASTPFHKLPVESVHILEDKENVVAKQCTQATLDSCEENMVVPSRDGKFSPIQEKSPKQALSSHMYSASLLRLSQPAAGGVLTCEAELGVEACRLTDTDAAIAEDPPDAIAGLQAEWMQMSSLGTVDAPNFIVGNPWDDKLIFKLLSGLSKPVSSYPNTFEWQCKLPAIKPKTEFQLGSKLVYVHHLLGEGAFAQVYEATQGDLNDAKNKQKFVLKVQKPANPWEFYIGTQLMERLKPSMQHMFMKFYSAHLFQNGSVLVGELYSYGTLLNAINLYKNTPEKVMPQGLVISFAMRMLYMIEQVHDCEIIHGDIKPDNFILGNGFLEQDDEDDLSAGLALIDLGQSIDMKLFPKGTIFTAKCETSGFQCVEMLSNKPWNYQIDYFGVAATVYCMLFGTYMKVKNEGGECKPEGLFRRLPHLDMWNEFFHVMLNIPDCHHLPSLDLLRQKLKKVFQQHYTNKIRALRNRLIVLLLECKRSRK
How it was run: as §1

[6] = biological target: T3, KIT(V559D) (Homo sapiens, UniProt P10721, V559D); settings: read-out: % control
T3 construct: purchased KinomeScan®
T3 sequence (P10721 26-976 V559D): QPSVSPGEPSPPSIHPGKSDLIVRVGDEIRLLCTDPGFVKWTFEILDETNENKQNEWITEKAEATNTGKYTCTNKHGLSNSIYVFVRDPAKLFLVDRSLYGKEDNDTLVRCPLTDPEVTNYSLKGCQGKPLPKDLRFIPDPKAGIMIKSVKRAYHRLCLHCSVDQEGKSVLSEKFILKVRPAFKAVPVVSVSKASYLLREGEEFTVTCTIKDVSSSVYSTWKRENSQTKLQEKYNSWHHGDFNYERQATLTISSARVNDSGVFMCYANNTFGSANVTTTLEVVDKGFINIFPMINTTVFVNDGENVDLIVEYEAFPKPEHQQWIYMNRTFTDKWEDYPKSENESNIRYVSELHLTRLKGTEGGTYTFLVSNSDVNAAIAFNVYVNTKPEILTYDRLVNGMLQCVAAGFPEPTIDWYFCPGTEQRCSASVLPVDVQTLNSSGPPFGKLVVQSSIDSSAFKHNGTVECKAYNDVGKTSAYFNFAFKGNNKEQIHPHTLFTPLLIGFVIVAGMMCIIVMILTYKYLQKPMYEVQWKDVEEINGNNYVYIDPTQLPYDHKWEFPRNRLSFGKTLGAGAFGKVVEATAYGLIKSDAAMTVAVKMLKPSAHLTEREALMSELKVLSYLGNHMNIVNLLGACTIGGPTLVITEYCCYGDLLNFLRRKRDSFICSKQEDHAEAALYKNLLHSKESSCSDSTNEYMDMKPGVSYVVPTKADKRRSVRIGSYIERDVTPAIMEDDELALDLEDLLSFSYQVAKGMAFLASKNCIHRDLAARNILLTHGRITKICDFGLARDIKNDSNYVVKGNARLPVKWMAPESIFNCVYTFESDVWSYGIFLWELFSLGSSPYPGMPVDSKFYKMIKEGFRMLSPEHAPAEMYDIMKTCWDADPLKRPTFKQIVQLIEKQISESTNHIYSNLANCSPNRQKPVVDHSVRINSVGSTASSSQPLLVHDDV
How it was run: as §1

[7] = biological target: T4, PIP5K2C (Homo sapiens, UniProt Q8TBX8); settings: read-out: % control
T4 construct: purchased KinomeScan® (panel service)
T4 sequence (Q8TBX8 1-421): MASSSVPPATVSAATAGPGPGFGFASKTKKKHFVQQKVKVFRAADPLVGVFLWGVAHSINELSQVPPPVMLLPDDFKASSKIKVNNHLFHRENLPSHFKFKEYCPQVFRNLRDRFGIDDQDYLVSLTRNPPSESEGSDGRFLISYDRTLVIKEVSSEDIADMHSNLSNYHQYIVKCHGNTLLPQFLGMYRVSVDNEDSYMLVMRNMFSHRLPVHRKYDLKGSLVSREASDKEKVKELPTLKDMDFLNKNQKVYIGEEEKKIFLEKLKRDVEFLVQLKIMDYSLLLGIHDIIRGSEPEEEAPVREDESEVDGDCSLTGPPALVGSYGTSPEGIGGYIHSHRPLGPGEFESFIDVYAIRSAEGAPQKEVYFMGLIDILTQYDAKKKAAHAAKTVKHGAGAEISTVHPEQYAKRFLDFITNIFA
How it was run: as §1

[8] = biological target: T5, SRPK1 (Homo sapiens, UniProt Q96SB4); settings: SRPK1, 1 μM; read-out: % control
T5 construct: purchased KinomeScan® (panel service)
T5 sequence (Q96SB4 whole entry): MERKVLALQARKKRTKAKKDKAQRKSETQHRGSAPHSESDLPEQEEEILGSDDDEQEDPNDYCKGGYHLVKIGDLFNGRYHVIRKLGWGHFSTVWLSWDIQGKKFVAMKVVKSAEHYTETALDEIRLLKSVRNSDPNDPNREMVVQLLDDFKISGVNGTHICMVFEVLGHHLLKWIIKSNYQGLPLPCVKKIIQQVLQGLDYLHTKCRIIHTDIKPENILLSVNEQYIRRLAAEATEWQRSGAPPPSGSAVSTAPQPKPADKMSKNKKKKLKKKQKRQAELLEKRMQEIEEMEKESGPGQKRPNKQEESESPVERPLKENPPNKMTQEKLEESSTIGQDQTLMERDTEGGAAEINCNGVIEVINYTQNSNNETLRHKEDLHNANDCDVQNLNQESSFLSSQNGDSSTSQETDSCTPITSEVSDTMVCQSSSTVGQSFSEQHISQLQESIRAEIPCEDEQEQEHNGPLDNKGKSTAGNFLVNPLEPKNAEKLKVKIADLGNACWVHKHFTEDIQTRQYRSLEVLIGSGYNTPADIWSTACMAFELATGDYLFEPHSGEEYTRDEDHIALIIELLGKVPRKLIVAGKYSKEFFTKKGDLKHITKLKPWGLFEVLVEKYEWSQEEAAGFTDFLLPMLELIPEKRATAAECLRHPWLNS
How it was run: as §1

[9] = biological target: T6, MUSK (Homo sapiens, UniProt O15146); settings: read-out: % control
T6 sequence (O15146 24-869): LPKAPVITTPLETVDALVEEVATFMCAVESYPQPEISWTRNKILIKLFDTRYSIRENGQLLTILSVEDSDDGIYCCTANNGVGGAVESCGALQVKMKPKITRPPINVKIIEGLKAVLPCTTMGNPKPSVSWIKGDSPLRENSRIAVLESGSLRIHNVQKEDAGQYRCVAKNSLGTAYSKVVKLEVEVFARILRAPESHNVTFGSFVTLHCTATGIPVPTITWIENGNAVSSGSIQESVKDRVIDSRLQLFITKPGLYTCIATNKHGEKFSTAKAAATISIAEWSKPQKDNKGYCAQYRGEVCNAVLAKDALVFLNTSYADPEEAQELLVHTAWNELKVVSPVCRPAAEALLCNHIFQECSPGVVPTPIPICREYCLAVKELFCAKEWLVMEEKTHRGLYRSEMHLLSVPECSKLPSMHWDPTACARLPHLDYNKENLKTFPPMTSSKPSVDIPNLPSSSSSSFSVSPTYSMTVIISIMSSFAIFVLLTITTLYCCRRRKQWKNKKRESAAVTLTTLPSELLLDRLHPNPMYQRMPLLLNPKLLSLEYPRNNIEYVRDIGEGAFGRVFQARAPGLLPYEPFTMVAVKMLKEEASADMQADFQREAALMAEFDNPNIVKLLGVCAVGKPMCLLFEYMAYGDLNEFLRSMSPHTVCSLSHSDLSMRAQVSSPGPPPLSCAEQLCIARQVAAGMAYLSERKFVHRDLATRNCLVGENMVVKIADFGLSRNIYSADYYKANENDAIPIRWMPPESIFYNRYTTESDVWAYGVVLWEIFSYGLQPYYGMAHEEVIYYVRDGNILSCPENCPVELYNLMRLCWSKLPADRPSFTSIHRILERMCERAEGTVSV
How it was run: as §1

[10] = biological target: TLK2 (Homo sapiens, UniProt Q86UE8); settings: TLK2, 1 μM; read-out: % control
Chain of TLK2 (Q86UE8 whole entry): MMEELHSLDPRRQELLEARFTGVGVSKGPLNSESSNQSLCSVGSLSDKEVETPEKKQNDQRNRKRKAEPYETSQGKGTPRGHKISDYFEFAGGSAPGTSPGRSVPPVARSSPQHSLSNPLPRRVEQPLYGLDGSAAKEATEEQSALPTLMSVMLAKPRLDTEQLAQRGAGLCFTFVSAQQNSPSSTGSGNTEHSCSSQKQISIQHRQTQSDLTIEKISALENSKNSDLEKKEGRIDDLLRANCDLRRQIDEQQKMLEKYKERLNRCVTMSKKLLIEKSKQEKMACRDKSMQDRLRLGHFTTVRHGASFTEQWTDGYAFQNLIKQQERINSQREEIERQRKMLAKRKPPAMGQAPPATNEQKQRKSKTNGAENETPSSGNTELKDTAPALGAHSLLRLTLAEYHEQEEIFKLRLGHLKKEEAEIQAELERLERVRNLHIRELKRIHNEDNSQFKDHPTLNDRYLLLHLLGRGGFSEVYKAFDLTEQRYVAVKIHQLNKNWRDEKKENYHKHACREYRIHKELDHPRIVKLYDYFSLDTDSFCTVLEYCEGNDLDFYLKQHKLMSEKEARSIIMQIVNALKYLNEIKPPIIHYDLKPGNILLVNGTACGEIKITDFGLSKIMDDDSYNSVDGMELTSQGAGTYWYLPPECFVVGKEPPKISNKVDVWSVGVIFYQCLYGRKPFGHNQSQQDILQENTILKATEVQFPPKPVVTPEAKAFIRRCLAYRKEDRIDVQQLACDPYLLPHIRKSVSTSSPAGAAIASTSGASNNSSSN
How it was run: as §1

[11] = biological target: T7, MEK4 (Homo sapiens, UniProt P45985); settings: MEK4, 1 μM; read-out: % control
T7 sequence (P45985 1-399): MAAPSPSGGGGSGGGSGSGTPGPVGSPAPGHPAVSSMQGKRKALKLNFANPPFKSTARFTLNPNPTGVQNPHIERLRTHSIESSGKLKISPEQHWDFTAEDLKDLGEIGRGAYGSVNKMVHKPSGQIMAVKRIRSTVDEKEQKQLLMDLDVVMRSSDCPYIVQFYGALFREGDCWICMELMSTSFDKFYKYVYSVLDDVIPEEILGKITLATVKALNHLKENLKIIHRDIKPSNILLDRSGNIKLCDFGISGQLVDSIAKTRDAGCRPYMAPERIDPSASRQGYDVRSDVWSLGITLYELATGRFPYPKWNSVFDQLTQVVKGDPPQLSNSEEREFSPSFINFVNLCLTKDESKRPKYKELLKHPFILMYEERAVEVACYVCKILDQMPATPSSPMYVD
How it was run: as §1

Chain of PKN1 (Q16512 whole entry): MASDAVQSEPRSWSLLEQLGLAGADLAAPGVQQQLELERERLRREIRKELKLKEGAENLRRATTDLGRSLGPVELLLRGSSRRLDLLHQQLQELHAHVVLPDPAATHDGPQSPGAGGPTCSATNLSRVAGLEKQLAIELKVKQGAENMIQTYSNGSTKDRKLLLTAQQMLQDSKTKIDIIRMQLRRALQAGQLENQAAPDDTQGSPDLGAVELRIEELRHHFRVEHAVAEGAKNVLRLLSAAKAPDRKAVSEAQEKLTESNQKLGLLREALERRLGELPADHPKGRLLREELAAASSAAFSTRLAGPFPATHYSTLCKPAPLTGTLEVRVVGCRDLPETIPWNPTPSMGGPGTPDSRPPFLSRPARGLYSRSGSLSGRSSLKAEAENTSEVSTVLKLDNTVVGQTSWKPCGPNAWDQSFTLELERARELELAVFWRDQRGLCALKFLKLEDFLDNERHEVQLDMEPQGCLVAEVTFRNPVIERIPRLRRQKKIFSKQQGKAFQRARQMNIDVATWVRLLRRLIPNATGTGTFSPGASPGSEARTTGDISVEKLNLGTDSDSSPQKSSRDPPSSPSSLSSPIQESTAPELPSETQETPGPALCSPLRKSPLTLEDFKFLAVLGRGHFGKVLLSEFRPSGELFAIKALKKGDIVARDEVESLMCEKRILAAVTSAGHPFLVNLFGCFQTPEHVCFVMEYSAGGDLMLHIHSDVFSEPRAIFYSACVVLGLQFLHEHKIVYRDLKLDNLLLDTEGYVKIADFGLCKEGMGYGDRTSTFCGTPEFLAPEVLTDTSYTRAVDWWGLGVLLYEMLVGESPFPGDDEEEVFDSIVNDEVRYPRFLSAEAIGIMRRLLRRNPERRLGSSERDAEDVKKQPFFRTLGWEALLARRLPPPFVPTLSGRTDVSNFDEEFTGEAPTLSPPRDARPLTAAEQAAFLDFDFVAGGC

SMILES	remaining binding at 1 µM [1] [%]	remaining binding at 1 µM [2] [%]	remaining binding at 1 µM [3] [%]	remaining binding at 1 µM [4] [%]	remaining binding at 1 µM [5] [%]	remaining binding at 1 µM [6] [%]	remaining binding at 1 µM [7] [%]	remaining binding at 1 µM [8] [%]	remaining binding at 1 µM [9] [%]	remaining binding at 1 µM [10] [%]	remaining binding at 1 µM [11] [%]
CNc1c(-c2cnn([C@H]3CCN(C(C)=O)C[C@@H]3F)c2)cnc2[nH]cc(Cl)c12 [Compound 77, 1-((3S,4S)-4-(4-(3-chloro-4-(methylamino)-1H-pyrrolo[2,3-b]pyridin-5-yl)-1H-pyrazol-1-yl)-3-fluoropiperidin-1-yl)ethan-1-one]	100	16	96	17	80	2.8	93	10	100	99	45
O=C(c1ccc(-c2cnc3[nH]cc(Cl)c3c2NC2CCCC2)cc1)N1CCC(N2CCOCC2)CC1 [Compound 101, (4-(3-chloro-4-(cyclopentylamino)-1H-pyrrolo[2,3-b]pyridin-5-yl)phenyl)(4-morpholinopiperidin-1-yl)methanone]	100	80	89	8.8	100	50	77	27	67	100	28
CNc1c(-c2ccc(C(=O)N3CCC(N4CCOCC4)CC3)cc2)cnc2[nH]cc(Cl)c12 [Compound 96, (4-(3-chloro-4-(methylamino)-1H-pyrrolo[2,3-b]pyridin-5-yl)phenyl)(4-morpholinopiperidin-1-yl)methanone]	95	9.7	100	0.85	86	4.5	63	17	100	100	7.3
